Consider one compound from patent publication US20030013898A1, “Pericyte protective agent” (Toray Industries, Inc., priority 1998, published 2003).

The subject of assay [1] is Pericytes isolated from bovine retina. Briefly: Pericyte protecting action: suppression of pericyte proliferation attributable to AGE. Format: cell-based. The conditions noted are these: FIG. 1. The procedure: Pericytes were isolated from bovine retina and maintained in Dulbecco's modified Eagle medium containing 20% foetal calf serum. The suppression of pericyte proliferation attributable to AGE was measured by adding 0.25 mg of AGE-BSA (prepared in Reference Example 1) to a culture plate into which 3.0×10^4 cells had been plated, then culturing at 37° C. for 5 days and performing measurements using a Packard Cyto Life. Separately, Beraprost sodium (BPS) was added at a final concentration of 0.1-10 μM prior to AGE addition. As controls, measurements were carried out in the same way for the case when treatment was carried out with AGE-BSA only and for the case where no treatment was carried out. For each group, the tests were carried out 10 times respectively.

For assay [2], the system named is RAGE mRNA. As to the kind of experiment: RAGE mRNA in pericytes by quantitative reverse transcription-polymerase chain reaction. The class given is cell-based, bovine. The conditions noted are these: 1 μM BPS treatment. As for the experimental part:
Pericytes were isolated from bovine retina and maintained in Dulbecco's modified Eagle medium containing 20% foetal calf serum. Next, the quantity of the AGE receptor RAGE mRNA present in the pericytes was analyzed by means of a quantitative reverse transcription-polymerase chain reaction method, in accordance with the technique described in Biochemical and Biophysical Research Communications, Vol. 213, 682-683, 1995.

For `CC#CCC(C)[C@H](O)/C=C/[C@@H]1[C@H]2c3cccc(CCCC(=O)O)c3O[C@H]2C[C@H]1O` (relative stereo) [BPS, (±)-(1R*,2R*,3aS*,8bS*)-2,3,3a,8b-tetrahydro-2-hydroxy-1-[(E)-(3S*)-3-hydroxy-4-methyl-1-octen-6-ynyl]-1H-cyclopenta[b]benzofuran-5-butyric acid], in assay [1] (BPS 0.1-10 μM added prior to 0.25 mg AGE-BSA, 3.0×10^4 cells, 37° C., 5 days), the “improvement of AGE-induced suppression of pericyte proliferation” value was “improved in a concentration-dependent manner”. In addition, the “concentration at which improvement of suppression of proliferation was significant” value in assay [1] (BPS added prior to AGE-BSA, 5 days culture) came to 1 µM. Moreover, in assay [2], the “expression of RAGE (mRNA)” value is listed as “expression of RAGE was suppressed”.
